Reference: patent US4981873A, “Substituted sulphonamides, pharmaceuticals thereof and methods of using them” (Boehringer Mannheim GmbH, priority 1988, dated 1991)
Read-outs that look alike come from different tables or passages of the source.

Legend:
[1] = system: thrombocyte aggregation (U 46619-induced); experiment: TX antagonistic effect: inhibition of U 46619-induced thrombocyte aggregation in platelet-rich plasma (Born and Cross); type: cell-based; conditions: human platelet-rich plasma, citrate, aggregation followed over 5 minutes, read-out: Thromboxane Aggregation IC50
Text: 1. TX Antagonistic Effect of Human […]
The thrombocyte aggregation is investigated by the method of Born and Cross (J. Physiol. 168, 178 (1963) in platelet-rich plasma of healthy blood donors. To inhibit clotting, the blood is mixed with 3.2% citrate in a ratio by volume of 1:9.
To induce thrombocyte aggregation, U 46619 (Upjohn & Co., Kalamazoo, USA), which is a stable analog of the prostaglandin endoperoxide […], is used. U 46619 was characterized as a selective thromboxane mimetic (Coleman et al., Brit. J. Pharmacol. 68, 127 P., 1980).
The aggregation test is carried out in a 4-channel aggregometer (Profiler® of the Bio/Data Co., USA). The course of the aggregation is followed over a period of 5 minutes. At the end of the test, the degree of aggregation attained is printed out. These values, which are obtained in the presence of different concentrations of the substance to be tested, are used for the determination of the IC50 for the TX antagonistic effect. The effectiveness varies inversely with the IC50 value.

[2] = system: U 46619-Induced Pulmonary Embolism; experiment: Preventing the U 46619-induced pulmonary embolism (survival rate of mouse); type: in vivo; conditions: male NMRI mice, lethal U 46619 injected i.v. (tail vein) after 4 hours; for responders at 25 mg/kg: Mus musculus, iv; for Survival Rate of Mouse 1 mg/kg, 4 h in %: 1 mg/kg by stomach tube
Description: 2. Preventing the U 46619-Induced Pulmonary Embolism
Male NMRI mice, with a body weight of 25 g. are used. The test substance is suspended in 1% methylcellulose and administered to the experimental animals with the help of a stomach tube. The provocation test consists of injecting the lethal dose (800-1000/μg/kg) of the thromboxane mimetic (U 46619 of the Upjohn Co.) rapidly into the tail vein. The duration of the specific antagonistic effect is tested by pretreating the animals with 25 mg or 1 mg/kg of the different test substances and injecting U 46619 after 4 hours. The survival rate indicates how many of the animals used have survived the injection of the thromboxane mimetic.

| Compound | IC50 ([1]; 5 min) [µM] | responders at 25 mg/kg ([2]; 25 mg/kg by stomach tube) [%] | IC50 [1] [µM] | Survival Rate of Mouse 1 mg/kg, 4 h in % [2] [%] | Survival Rate of Mouse 25 mg/kg, 4 h in % ([2]; 25 mg/kg by stomach tube) [%] |
| --- | --- | --- | --- | --- | --- |
| CC(C)(SCCCCCNS(=O)(=O)c1ccc(Cl)cc1)C(=O)O [Example 9, 8-(4-Chlorobenzenesulphonamido)-2,2-dimethyl-3-thiaoctanoic acid] | 5.2 | 40 |  |  |  |
| 9-(4-Chlorobenzenesulphonamido)-3-thianonanoic acid [Example 6] |  |  | 3.4 | 100 | 80 |
| O=C(O)CSCCC/C=C\CNS(=O)(=O)c1ccc(Cl)cc1 [Example 7, (Z)-9-(4-Chlorobenzenesulphonamido)-3-thia-7-enenonanoic acid] | 1.4 | 100 |  | 60 |  |
| CC(C)(CCCSCCCNS(=O)(=O)c1ccc(Cl)cc1)C(=O)O [Example 11, 9-(4-Chlorobenzenesulphonamido)-2,2-dimethyl-6-thianonanoic acid] | 60 | 80 |  | 0 |  |
| COc1ccc(S(=O)(=O)NCCCCCSC(C)(C)C(=O)O)cc1 [Example 9.2, 8-(4-Methoxybenzenesulphonamido)-2,2-dimethyl-3-thiaoctanoic acid] | 100 | 60 |  | 20 |  |
| O=C(O)CSCCCCCCNS(=O)(=O)c1ccc(Cl)cc1 [Example 4, 9-(4-Chlorobenzenesulphonamido)-3-thianonanoic acid] | 1.3 | 40 |  |  |  |
| CC(C)(CCSCCNS(=O)(=O)c1ccc(Cl)cc1)CC(=O)O [Example 8.3, 8-(4-Chlorobenzenesulphonamido)-3,3-dimethyl-6-thiaoctanoic acid] | 5 | 40 |  |  |  |
| CC(C)(CCSCCNS(=O)(=O)c1ccc(Cl)cc1)C(=O)O [Example 8, 7-(4-Chlorobenzenesulphonamido)-2,2-dimethyl-5-thiaheptanoic acid] | 13 | 40 |  |  |  |
| CC(C)(CCSCCCNS(=O)(=O)c1ccc(Cl)cc1)CC(=O)O [Example 11.2, 9-(4-Chlorobenzenesulphonamido)-3,3-dimethyl-6-thianonanoic acid] | 100 | 80 |  | 0 |  |
| O=C(O)C[S+]([O-])CCCCCCNS(=O)(=O)c1ccc(Cl)cc1 (stereo not shown) [Example 5, 9-(4-Chlorobenzenesulphonamido)-3-thianonanoic acid 3-oxide] | 2.1 | 40 |  |  |  |
